In brackets after ≈: the same amount, converted by molar mass.
Legend:
[1] = tested on: dengue virus type 2; assay: Antiviral activity against DENV2 (TR1751) infected in BHK-21 cells assessed as reduction in virus titre at 100 uM by focus forming assay relative to control; type: functional; design: scale not given: the % may be the effect or the level left
[2] = tested on: dengue virus type 2; assay: Antiviral activity against DENV2 (TR1751) infected in BHK-21 cells assessed as reduction in virus titre at 1000 uM by focus forming assay relative to control; type: functional; design: scale not given: the % may be the effect or the level left
[3] = target: T1, Genome polyprotein (dengue virus type 2, UniProt P29990); assay: Inhibition of DENV-2 NS2bNS3 pro
T1 sequence (P29990 1346-1475 limits assumed): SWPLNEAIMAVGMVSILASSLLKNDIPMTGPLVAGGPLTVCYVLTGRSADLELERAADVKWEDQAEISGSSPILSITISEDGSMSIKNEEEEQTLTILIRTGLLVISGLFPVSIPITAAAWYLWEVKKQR
T1 sequence (P29990 1476-2093 limits assumed): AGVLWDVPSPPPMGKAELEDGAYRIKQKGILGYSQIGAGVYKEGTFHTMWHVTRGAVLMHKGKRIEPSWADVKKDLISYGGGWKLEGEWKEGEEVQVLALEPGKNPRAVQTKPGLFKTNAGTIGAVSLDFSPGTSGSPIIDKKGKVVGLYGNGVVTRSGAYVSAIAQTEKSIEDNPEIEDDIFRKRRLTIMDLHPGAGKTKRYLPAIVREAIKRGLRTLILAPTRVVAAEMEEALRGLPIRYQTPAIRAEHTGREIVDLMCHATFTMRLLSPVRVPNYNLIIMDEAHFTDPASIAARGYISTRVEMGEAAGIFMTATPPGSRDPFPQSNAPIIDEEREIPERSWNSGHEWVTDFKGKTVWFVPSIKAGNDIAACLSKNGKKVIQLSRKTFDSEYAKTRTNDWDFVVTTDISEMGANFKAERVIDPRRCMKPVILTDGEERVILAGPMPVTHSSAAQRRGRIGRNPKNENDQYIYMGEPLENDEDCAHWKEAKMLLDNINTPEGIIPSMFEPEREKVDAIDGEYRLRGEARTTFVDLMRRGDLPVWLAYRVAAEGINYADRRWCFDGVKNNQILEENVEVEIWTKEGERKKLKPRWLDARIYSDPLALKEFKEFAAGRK

[4] = tested on: dengue virus type 1; assay: Antiviral activity against Dengue virus 1 infected in african green monkey Vero cells assessed as reduction in viral titer preincubated for 1 hour with cells followed by viral infection and measured upto 7 days by plague assay relative to control; type: functional; details: time <= 7 day
[5] = Antiviral activity against Dengue virus 2 infected in african green monkey Vero cells assessed as reduction in viral titer preincubated for 1 hour with cells followed by viral infection and measured upto 7 days by plague assay relative to control; type: functional, dengue virus type 2; details: time <= 7 day
[6] = Antiviral activity against Dengue virus 3 infected in african green monkey Vero cells assessed as reduction in viral titer preincubated for 1 hour with cells followed by viral infection and measured upto 7 days by plague assay relative to control; type: functional, dengue virus type 3; details: time <= 7 day
[7] = Antiviral activity against Dengue virus 4 infected in african green monkey Vero cells assessed as reduction in viral titer preincubated for 1 hour with cells followed by viral infection and measured upto 7 days by plague assay relative to control; type: functional, dengue virus type 4; details: time <= 7 day
[8] = tested on: dengue virus type 2; assay: Antiviral activity against DENV2 infected in human Huh-7 cells using Boc-GRR-AMC as substrate incubated for 30 mins by fluorescence spectroscopy assay; type: functional, organism-based; details: Huh-7, 0.5 h
[9] = target: T1, Genome polyprotein; assay: Inhibition of DENV NS2B/NS3 protease transfected in human Huh-7 cells using 7-amino-4-methylcoumarin (AMC) fluorophore-linked peptide substrate Boc-GRR-AMC as substrate by fluoroscence based assay; type: cell-based
[10] = tested on: dengue virus type 2; assay: Antiviral activity against DENV-2 infected in human Huh-7 cells assessed as reduction in viral RNA treated for 3 days by qRT-PCR analysis; type: functional, organism-based; details: Huh-7, 72 h
[11] = tested on: dengue virus type 2; assay: Antiviral activity against DENV2 assessed as inhibition of viral replication; type: functional, organism-based
[12] = Inhibition of DENV2 pro infected in human Huh-7 cells using 7-amino-4-methylcoumarin (AMC) fluorophore-linked Boc-GRR-AMC as substrate incubated for 30 mins; type: cell-based, dengue virus type 2; details: Dengue virus, Huh-7, 0.5 h
[13] = target: T1, Genome polyprotein; assay: Inhibition of DENV-2 NS2B/NS3 protease expressed in Escherichia coli XL1 using Boc-GRR-MCA as substrate preincubated for 10 mins followed by substrate addition and measured after 60 mins
[14] = tested on: Dengue virus; assay: Antiviral activity against Dengue virus assessed as reduction in viral titer at 50 uM preincubated for 1 hr measured after 24 hrs post infection by plaque assay relative to control; type: functional; design: scale not given: the % may be the effect or the level left; details: time 25 hrs
[15] = tested on: dengue virus type 2; assay: Antiviral activity against DENV2; type: functional, organism-based
[16] = Permeability of the compound at pH 7.4; type: ADME; details: PAMPA, read-out: permeability
[17] = Antiviral activity against DENV2 infected in human Huh-7 cells assessed as log reduction of viral titre measured at 1 uM measured after 72 hrs; type: functional, dengue virus type 2
[18] = Antiviral activity against DENV2 infected in human K562 cells assessed as log reduction of viral titre measured at 1 uM measured after 72 hrs; type: functional, dengue virus type 2
[19] = Inhibition of DENV2 protease infected in human HeLa cells; type: cell-based, dengue virus type 2; details: Dengue virus
[20] = tested on: dengue virus type 2; assay: Antiviral activity against DENV2 infected in human Huh-7 cells assessed as inhibition of viral replication measured after 72 hrs post infection by qRT-PCR analysis; type: functional, organism-based; details: Huh-7, 72 h
[21] = tested on: dengue virus type 1; assay: Antiviral activity against DENV1 infected in human Huh-7 cells assessed as inhibition of viral replication measured after 72 hrs post infection by qRT-PCR analysis; type: functional, organism-based; details: Huh-7, 72 h
[22] = tested on: dengue virus type 3; assay: Antiviral activity against DENV3 infected in human Huh-7 cells assessed as inhibition of viral replication measured after 72 hrs post infection by qRT-PCR analysis; type: functional, organism-based; details: Huh-7, 72 h
[23] = tested on: dengue virus type 4; assay: Antiviral activity against DENV4 infected in human Huh-7 cells assessed as inhibition of viral replication measured after 72 hrs post infection by qRT-PCR analysis; type: functional, organism-based; details: Huh-7, 72 h
[24] = target: T1, Genome polyprotein; assay: Inhibition of DENV2 NS2B-NS3 protease using Boc-Gly-Arg-Arg-MCA as substrate by fluorescence assay
[25] = Antiviral activity against DENV2 infected in human HepG2 cells measured after 48 hrs by plaque assay; type: functional, cell-based, dengue virus type 2; details: Dengue virus, HepG2, 48 h
[26] = Antiviral activity against DENV2 infected in BHK-21 cells assessed as inhibition of viral replication; type: functional, cell-based, dengue virus type 2; details: Dengue virus
[27] = Cytotoxicty against BHK-21 cells assessed as reduction in cell viability; type: toxicity, cell-based; details: Mesocricetus auratus (golden hamster)
[28] = target: T1, Genome polyprotein; assay: Inhibition of DENV NS2B/NS3 pro
[29] = Antiviral activity against DENV2 infected in african green monkey Vero cells assessed as reduction of viral titre by viral plaque reduction assay; type: functional, cell-based, dengue virus type 2; details: Dengue virus
[30] = Antiviral activity against DENV-2 NGC infected in african green monkey Vero B cells assessed as reduction in virus induced cytopathic effect; type: functional, cell-based, dengue virus type 2; details: Dengue virus

## Oc1cc(O)c2c(c1)O[C@H](c1ccc(O)c(O)c1)[C@H](O)C2 [(-)-EPICATECHIN]
[1]
  Activity: 77.7%
[2]
  Activity: 66.2%

## N#C/C(=C/c1ccc(-c2ccc(C(=O)O)cc2)s1)c1nc2cc(Cl)ccc2[nH]1
[3]
  IC50: 5.95 µM
[4]
  inhibition (INH): 50%
[5]
  inhibition (INH): 83%
[6]
  inhibition (INH): 75%
[7]
  inhibition (INH): 73%

## COC(=O)c1[nH]c2ccc(Cl)cc2c1C(=O)c1cc(OC)c(OC)c(OC)c1
[8]
  EC50: 4.6 µM
[9]
  EC50: 4.7 µM
[10]
  EC50: 4.6 µM
[11]
  EC50: 4.6 µM
[12]
  EC50: 6.7 µM

## CCCCC(=O)Nc1nc(SC(=O)CCCC)c2nc[nH]c2n1
[13]
  IC50: 0.38 µM

## C[C@@H](CC[C@H](O)[C@](C)(O)CO)[C@@H]1CC[C@]2(C)C3=CC[C@@H]4C(C)(C)C(=O)CC[C@@]4(C)C3=CC[C@@]12C
[14]
  Activity: 40%

## O=C1c2c(O)ccc([N+](=O)[O-])c2C(=O)c2c([N+](=O)[O-])ccc(O)c21
[15]
  EC50: 4.2 µM
[16]
  Papp: 44.5 nm/s
[17]
  log(activity): >1 PFU/ml
[18]
  log(activity): >1 PFU/ml

## CCCCCC(=O)N[C@H](C(=O)NCc1ccc(NC(=N)N)cc1)c1ccc(OCc2ccccc2)cc1
[19]
  EC50: 0.49 µM

## CC(=O)O[C@H]1CC(C)(C)C(=C=C/C(C)=C/C=C/C=C/C=C(C)/C=C2C=C(/C=C/[C@@]34O[C@]3(C)C[C@@H](O)CC4(C)C)C(=O)O/2)[C@](C)(O)C1
[20]
  EC50: 4.5 µM
[21]
  EC50: 5.84 µM
[22]
  EC50: 5.84 µM
[23]
  EC50: 5.84 µM
[11]
  EC50: 4.5 µM

## CCCCC1C(C(=O)OCC)C(c2ccccc2)CCN1C(=O)OC(C)(C)C (stereo unspecified)
[24]
  IC50: 214 µM
[25]
  EC50: 3.2 µM

## Cc1cc(O)c(S(=O)(=O)O)cc1Cc1cc(S(=O)(=O)O)c(O)c(Cc2cc(S(=O)(=O)O)c(O)cc2C)c1C
[26]
  IC50: 4.99 mg/L (≈ 8.48 µM)
[27]
  IC50: 459 mg/L (≈ 781 µM)
[28]
  IC50: 0.815 µM

## O=C(O)c1ccccc1-c1c2cc(I)c(=O)c(I)c-2oc2c(I)c(O)c(I)cc12
[29]
  EC50: 1.2 µM

## Cc1c(O)cccc1C(=O)N[C@@H](CSc1ccccc1)[C@H](O)CN1C[C@H]2CCCC[C@H]2C[C@H]1C(=O)NC(C)(C)C
[30]
  EC50: 3.5 µM

— ChEMBL document CHEMBL5096200, “A short survey of dengue protease inhibitor development in the past 6 years (2015-2020) with an emphasis on similarities between DENV and SARS-CoV-2 proteases” (Bioorg Med Chem, 2021)
